Test results taken from US20140329177A1, “CYCLIC COMPOUND, METHOD FOR PRODUCING SAME, RADIATION-SENSITIVE COMPOSITION, AND RESIST PATTERN FORMATION METHOD” (MITSUBISHI GAS CHEMICAL COMPANY, INC., priority 2011, published 2014).

Test: Solubility test of compound in safe solvent
Type: physicochemical
Conditions: 23° C.; for dissolution amount in CHN: cyclohexanone (CHN); for dissolution amount in PGME: propylene glycol monomethyl ether (PGME)
Description: The dissolution amounts of compounds obtained in the above synthesis examples 1 to 4 and syntheses 1 and 2 in propylene glycol monomethyl ether (PGME) and cyclohexanone (CHN) were evaluated as follows.
A: 5.0% by mass≦dissolution amount B: 3.0% by mass≦dissolution amount<5.0% by mass C: dissolution amount<3.0% by mass
dissolution amount (% by mass)=mass (g) of compound dissolved in 100 g of solvent of 23° C./(100 g of mass of solvent+mass (g) of compound dissolved in 100 g of solvent of 23° C.)×100

Row | Structure (SMILES) | dissolution amount in CHN | dissolution amount in PGME
1 | CC(C)c1ccc(C2c3cc(c(O)cc3O)C(c3ccc(C(C)C)cc3)c3cc(c(O)cc3O)C(c3ccc(C(C)C)cc3)c3cc(c(O)cc3O)C(c3ccc(C(C)C)cc3)c3cc2c(O)cc3O)cc1 (stereo not shown) [CR-1A] | C (dissolution amount<3.0% by mass) | B (3.0% by mass≦dissolution amount<5.0% by mass)
2 | Oc1cc(O)c2cc1C(c1ccc(C3CCCCC3)cc1)c1cc(c(O)cc1O)C(c1ccc(C3CCCCC3)cc1)c1cc(c(O)cc1O)C(c1ccc(C3CCCCC3)cc1)c1cc(c(O)cc1O)C2c1ccc(C2CCCCC2)cc1 (stereo not shown) [CR-2A] | B (3.0% by mass≦dissolution amount<5.0% by mass) | B (3.0% by mass≦dissolution amount<5.0% by mass)
